IC50 data for four compounds are collected here from patent US12227501B2, “3-amino-2-[2-(acylamino)pyridin-4-yl]-1,5,6,7-tetrahydro-4h-pyrrolo[3,2-c]pyridin-4-one as CSNK1 inhibitors” (Bayer Aktiengesellschaft, priority 2019, dated 2025).

One assay deals with human CSNK1A1 (Homo sapiens (Human), UniProt P48729). Nature of the assay: CSNK1A1 High ATP Assay (ADP-Glo, 1 mM ATP). It counts as biochemical. The settings on record: read-out: CSNK1A1 high ATP assay IC50 [mol/l] (median). The essentials:
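GST-tagged full-length human CSNK1A1 from baculovirus-infected insect cells (typically about 0.4 ng/μL), pre-incubated with compound 15 min at 22 °C. Reaction with biotinylated peptide biotin-Ahx-KRRRAL-pS-VASLPGL at 1 mM ATP. ADP formed read by ADP-Glo luminescence.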
(ADP-Glo turns the ADP formed in a reaction into a luminescent signal.)

For the next assay, the target named is human CSNK1D (Homo sapiens (Human), UniProt P48730). The assay can be described thus: CSNK1D Assay (ADP-Glo, 1 μM ATP). The assay is classed as biochemical. The settings on record: read-out: CSNK1D IC50 [mol/l] (median). The method in brief:
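GST-tagged full-length human CSNK1D from baculovirus-infected insect cells, typically ~0.5 ng/μL, with biotinylated peptide substrate and 1 μM ATP in HEPES pH 7.5 buffer. Compound is preincubated with enzyme 15 min at 22 °C. ADP formed is quantified by ADP-Glo luminescence.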

The structures appear in SMILES notation.

Chain of human CSNK1A1 (P48729 whole entry): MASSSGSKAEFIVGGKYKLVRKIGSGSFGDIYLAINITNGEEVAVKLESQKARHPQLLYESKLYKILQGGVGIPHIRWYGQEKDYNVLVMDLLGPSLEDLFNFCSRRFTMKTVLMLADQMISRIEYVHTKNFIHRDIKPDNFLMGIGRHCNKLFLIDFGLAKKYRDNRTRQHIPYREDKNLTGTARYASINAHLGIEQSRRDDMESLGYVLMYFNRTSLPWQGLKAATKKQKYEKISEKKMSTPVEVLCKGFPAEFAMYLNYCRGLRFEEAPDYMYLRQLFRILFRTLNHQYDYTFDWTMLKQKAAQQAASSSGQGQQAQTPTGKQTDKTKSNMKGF
Chain of human CSNK1D (P48730 whole entry): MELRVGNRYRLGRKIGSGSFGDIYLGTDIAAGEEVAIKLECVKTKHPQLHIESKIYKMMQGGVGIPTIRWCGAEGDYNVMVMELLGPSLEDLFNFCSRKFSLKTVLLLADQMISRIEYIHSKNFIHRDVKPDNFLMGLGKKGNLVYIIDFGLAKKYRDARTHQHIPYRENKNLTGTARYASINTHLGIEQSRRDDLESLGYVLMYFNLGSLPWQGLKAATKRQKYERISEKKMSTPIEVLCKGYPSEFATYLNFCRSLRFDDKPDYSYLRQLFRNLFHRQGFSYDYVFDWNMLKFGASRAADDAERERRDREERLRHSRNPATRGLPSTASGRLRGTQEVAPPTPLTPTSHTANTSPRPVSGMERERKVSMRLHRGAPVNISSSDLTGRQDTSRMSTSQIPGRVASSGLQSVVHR

As for `C[C@H](C(=O)Nc1cc(-c2[nH]c3c(c2Nc2ccccc2)C(=O)N(C)CC3)ccn1)c1ccc(F)cc1` (single isomer, unassigned) [Example 5], the IC50 amounted to 63.4 nM on human CSNK1A1 and 12.1 nM at human CSNK1D.

Consider `C[C@@H](C(=O)Nc1cc(-c2[nH]c3c(c2Nc2ccccc2)C(=O)N(C)CC3)ccn1)c1ccc(F)cc1` (single isomer, unassigned) [Example 6], for which the IC50 on human CSNK1A1 is 1600 nM; on human CSNK1D, 49.6 nM.

As for `CN1CCc2[nH]c(-c3ccnc(NC(=O)Cc4ccc(F)cc4)c3)c(Nc3ccccc3)c2C1=O` [Example 1, N-[4-(3-anilino-5-methyl-4-oxo-4,5,6,7-tetrahydro-1H-pyrrolo[3,2-c]pyridin-2-yl)pyridin-2-yl]-2-(4-fluorophenyl)acetamide], the IC50 at human CSNK1A1 amounted to 28.4 nM; at human CSNK1D it was 5.64 nM.

Take `CC(C(=O)Nc1cc(-c2[nH]c3c(c2Nc2ccccc2)C(=O)N(C)CC3)ccn1)c1ccc(F)cc1` (centres unmarked) [Example 4, N-[4-(3-anilino-5-methyl-4-oxo-4,5,6,7-tetrahydro-1H-pyrrolo[3,2-c]pyridin-2-yl)pyridin-2-yl]-2-(4-fluorophenyl)propanamide]: the IC50 on human CSNK1A1 was 115 nM; at human CSNK1D, 15.1 nM.
